Measurements reported in ChEMBL document CHEMBL1909046, “DrugMatrix in vitro pharmacology data”.

Assays:
B2 bradykinin receptor = target: T1, B2 bradykinin receptor (Homo sapiens, UniProt P30411); assay type: cell membranes, Membrane; conditions: chem-1; also: in other assays of this panel Not Active means under 50% inhibition at 10 µM
T1 sequence (P30411 whole entry): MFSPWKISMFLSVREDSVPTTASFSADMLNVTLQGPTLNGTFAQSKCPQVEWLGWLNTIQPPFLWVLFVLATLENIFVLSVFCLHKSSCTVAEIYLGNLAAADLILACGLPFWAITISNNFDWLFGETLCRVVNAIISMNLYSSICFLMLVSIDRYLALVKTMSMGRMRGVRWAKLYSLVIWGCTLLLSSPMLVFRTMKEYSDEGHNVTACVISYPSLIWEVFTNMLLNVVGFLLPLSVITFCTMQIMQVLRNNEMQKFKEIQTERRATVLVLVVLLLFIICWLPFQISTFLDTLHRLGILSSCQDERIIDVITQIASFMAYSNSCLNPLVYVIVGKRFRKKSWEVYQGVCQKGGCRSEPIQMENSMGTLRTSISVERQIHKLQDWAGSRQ

[1] = DRUGMATRIX: Sigma2 radioligand binding (ligand: [3H] Ifenprodil); assay type: cell membranes, Rattus norvegicus, Wistar, Brain, Membrane; conditions: Not Active = under 50% inhibition at 10 µM
D(1A) dopamine receptor = D(1A) dopamine receptor (Homo sapiens, UniProt P21728); experiment: DRUGMATRIX: Dopamine D1 radioligand binding (ligand: [3H] SCH-23390); assay type: cell membranes, CHO, Membrane; conditions: cho; Not Active = under 50% inhibition at 10 µM
D(4) dopamine receptor = target: T2, D(4) dopamine receptor (Homo sapiens, UniProt P21917); experiment: DRUGMATRIX: Dopamine D4.2 radioligand binding (ligand: [3H] Spiperone); assay type: cell membranes, CHO-K1, Membrane; conditions: cho-k1; Not Active = under 50% inhibition at 10 µM
T2 sequence (P21917 whole entry): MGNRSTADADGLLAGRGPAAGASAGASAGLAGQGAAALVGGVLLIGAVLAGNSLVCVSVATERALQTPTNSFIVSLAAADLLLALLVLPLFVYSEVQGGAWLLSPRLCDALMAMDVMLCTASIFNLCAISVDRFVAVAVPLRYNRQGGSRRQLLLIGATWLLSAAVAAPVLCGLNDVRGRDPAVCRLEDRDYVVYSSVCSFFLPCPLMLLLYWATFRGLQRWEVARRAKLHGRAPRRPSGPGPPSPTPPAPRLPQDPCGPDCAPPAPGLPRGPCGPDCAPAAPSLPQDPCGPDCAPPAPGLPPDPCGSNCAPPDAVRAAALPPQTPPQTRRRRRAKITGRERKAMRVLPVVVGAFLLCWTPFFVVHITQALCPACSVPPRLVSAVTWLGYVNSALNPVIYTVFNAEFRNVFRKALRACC

[2] = target: T3, Muscarinic acetylcholine receptor M2 (Homo sapiens, UniProt P08172); assay type: cell membranes, CHO-K1, Membrane; also: in other assays of this panel Not Active means under 50% inhibition at 10 µM
T3 sequence (P08172 whole entry): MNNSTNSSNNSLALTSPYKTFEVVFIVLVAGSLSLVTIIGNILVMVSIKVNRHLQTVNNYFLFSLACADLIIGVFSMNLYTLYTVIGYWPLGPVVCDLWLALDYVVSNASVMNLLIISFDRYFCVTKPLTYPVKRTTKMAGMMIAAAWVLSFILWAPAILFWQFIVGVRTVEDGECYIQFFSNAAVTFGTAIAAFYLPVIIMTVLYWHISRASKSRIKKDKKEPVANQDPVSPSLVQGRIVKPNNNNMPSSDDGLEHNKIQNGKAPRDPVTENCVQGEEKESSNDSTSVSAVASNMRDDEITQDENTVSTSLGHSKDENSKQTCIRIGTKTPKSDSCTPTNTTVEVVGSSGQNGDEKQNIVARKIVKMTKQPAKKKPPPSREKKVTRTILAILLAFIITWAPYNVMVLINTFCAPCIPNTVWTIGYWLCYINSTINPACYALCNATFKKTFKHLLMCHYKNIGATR

[3] = target: Receptor tyrosine-protein kinase erbB-2 (Homo sapiens, UniProt P04626); assay type: cell-based; conditions: insect cells;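 also: inhibition of HER2 kinase enzyme activity, measured with Poly(Glu:Tyr) as the phosphorylation substrate; in other assays of this panel Not Active means under 50% inhibition at 10 µM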
[4] = target: T4, Receptor-type tyrosine-protein phosphatase C (Homo sapiens, UniProt P08575); design: species or system Escherichia coli;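 also: inhibition of CD45 enzyme activity measured using DiFMUP as substrate; in other assays of this panel Not Active means under 50% inhibition at 10 µM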
T4 sequence (P08575 whole entry): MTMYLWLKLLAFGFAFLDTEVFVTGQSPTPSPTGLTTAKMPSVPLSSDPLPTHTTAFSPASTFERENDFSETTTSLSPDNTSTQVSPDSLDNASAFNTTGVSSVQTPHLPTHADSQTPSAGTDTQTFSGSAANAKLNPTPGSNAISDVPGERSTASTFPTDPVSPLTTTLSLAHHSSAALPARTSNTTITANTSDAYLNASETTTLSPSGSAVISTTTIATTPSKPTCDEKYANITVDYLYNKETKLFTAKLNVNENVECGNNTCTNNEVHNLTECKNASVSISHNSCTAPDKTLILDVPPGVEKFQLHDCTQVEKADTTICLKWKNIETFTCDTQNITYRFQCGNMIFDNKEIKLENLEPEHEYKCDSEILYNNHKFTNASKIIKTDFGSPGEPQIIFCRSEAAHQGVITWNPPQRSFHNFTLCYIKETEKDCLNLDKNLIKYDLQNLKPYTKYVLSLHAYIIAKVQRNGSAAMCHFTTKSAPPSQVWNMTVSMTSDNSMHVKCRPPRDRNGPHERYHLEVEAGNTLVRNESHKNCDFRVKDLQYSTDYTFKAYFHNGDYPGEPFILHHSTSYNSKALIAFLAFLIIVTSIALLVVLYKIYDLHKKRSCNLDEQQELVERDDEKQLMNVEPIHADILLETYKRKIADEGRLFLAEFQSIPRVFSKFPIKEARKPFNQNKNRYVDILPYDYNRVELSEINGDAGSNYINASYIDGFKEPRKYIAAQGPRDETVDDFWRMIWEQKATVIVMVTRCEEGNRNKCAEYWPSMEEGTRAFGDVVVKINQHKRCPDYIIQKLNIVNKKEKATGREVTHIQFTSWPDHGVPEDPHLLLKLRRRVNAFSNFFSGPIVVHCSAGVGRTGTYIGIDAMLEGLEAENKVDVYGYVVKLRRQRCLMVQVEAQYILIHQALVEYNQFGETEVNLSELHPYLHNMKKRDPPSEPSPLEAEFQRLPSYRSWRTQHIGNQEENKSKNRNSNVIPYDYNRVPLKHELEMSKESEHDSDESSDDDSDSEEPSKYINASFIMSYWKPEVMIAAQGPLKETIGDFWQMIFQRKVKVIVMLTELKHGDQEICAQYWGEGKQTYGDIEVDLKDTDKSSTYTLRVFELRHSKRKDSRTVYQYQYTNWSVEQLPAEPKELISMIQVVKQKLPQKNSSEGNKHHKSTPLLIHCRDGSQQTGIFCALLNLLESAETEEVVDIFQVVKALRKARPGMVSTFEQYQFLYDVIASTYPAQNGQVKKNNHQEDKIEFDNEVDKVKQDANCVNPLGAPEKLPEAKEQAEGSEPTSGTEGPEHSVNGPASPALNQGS

Sequence of D(1A) dopamine receptor (P21728 whole entry): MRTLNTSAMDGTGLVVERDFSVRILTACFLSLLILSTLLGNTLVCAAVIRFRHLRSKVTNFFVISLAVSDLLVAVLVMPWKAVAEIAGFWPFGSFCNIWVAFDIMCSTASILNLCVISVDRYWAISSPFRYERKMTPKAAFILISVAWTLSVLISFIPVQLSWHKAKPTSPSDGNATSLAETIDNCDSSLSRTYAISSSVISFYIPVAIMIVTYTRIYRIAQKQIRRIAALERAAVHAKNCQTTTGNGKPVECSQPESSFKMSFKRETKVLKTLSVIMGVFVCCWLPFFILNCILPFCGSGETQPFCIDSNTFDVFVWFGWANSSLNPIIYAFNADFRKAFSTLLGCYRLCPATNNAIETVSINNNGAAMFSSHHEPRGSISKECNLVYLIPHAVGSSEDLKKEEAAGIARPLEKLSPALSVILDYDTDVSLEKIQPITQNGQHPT

Compound | IC50 (B2 bradykinin receptor) | Ki (B2 bradykinin receptor) | IC50 [1] | Ki [1] | IC50 (D(1A) dopamine receptor) | Ki (D(1A) dopamine receptor) | IC50 (D(4) dopamine receptor) | Ki (D(4) dopamine receptor) | IC50 ([2]; cho-k1) | Ki ([2]; cho-k1) | IC50 [3] | Ki [3] | IC50 [4] | Ki [4] | IC50 ([2]; read-out: IC50) [nM] | Ki ([2]; read-out: Ki) [nM]
CARBOXYMETHYLCELLULOSE | Not Active | Not Active | Not Active | Not Active | Not Active | Not Active | Not Active | Not Active | Not Active | Not Active | Not Active | Not Active | Not Active | Not Active |  | 
C[C@@H]1[C@H](O)[C@@H](C)/C=C/C=C/C=C/C=C/C=C/C=C/C=C/[C@H](O[C@@H]2O[C@H](C)[C@@H](O)[C@H](N)[C@@H]2O)C[C@@H]2O[C@](O)(C[C@@H](O)C[C@@H](O)[C@H](O)CC[C@@H](O)C[C@@H](O)CC(=O)O[C@H]1C)C[C@H](O)[C@H]2C(=O)O [AMPHOTERICIN B] | Not Active |  | Not Active | Not Active | Not Active |  | Not Active |  | Not Active |  | Not Active |  | Not Active |  |  | 
CCN(CCO)CCCC(C)Nc1ccnc2cc(Cl)ccc12 (stereo not drawn) [HYDROXYCHLOROQUINE] | Not Active |  | Not Active | Not Active | Not Active |  | Not Active |  |  |  | Not Active |  | Not Active |  | 2950 | 1050
CCC1(c2ccccc2)C(=O)NC(=O)NC1=O [PHENOBARBITAL] | Not Active |  | Not Active | Not Active | Not Active |  | Not Active |  | Not Active |  | Not Active |  | Not Active |  |  | 
C=CCN1CC[C@]23c4c5ccc(O)c4O[C@H]2/C(=N/N=C2\CC[C@@]4(O)[C@H]6Cc7ccc(O)c8c7[C@@]4(CCN6CC=C)[C@H]2O8)CC[C@@]3(O)[C@H]1C5 [NALOXONAZINE] | Not Active |  | Not Active | Not Active | Not Active |  | Not Active |  | Not Active |  | Not Active |  | Not Active |  |  | 
CC(C)(C#N)c1cc(Cn2cncn2)cc(C(C)(C)C#N)c1 [ANASTROZOLE] | Not Active |  | Not Active | Not Active | Not Active |  | Not Active |  | Not Active |  | Not Active |  | Not Active |  |  | 
OC[C@H]1O[C@@H]2O[C@H]3[C@H](O)[C@@H](O)[C@@H](O[C@H]4[C@H](O)[C@@H](O)[C@@H](O[C@H]5[C@H](O)[C@@H](O)[C@@H](O[C@H]6[C@H](O)[C@@H](O)[C@@H](O[C@H]7[C@H](O)[C@@H](O)[C@@H](O[C@H]1[C@H](O)[C@H]2O)O[C@@H]7CO)O[C@@H]6CO)O[C@@H]5CO)O[C@@H]4CO)O[C@@H]3CO [ALFADEX] | Not Active |  | Not Active | Not Active | Not Active |  | Not Active |  | Not Active |  | Not Active |  | Not Active |  |  | 
POVIDONE | Not Active | Not Active | Not Active | Not Active | Not Active | Not Active | Not Active | Not Active | Not Active | Not Active | Not Active | Not Active | Not Active | Not Active |  | 
c1ccc2c(c1)Nc1ccccc1S2 [PHENOTHIAZINE] | Not Active |  | Not Active | Not Active | Not Active |  | Not Active |  | Not Active |  | Not Active |  | Not Active |  |  | 
CC[C@H]1OC(=O)[C@H](C)[C@@H](O[C@H]2C[C@@](C)(OC)[C@@H](O)[C@H](C)O2)[C@H](C)[C@@H](O[C@@H]2O[C@H](C)C[C@H](N(C)C)[C@H]2O)[C@](C)(O)C[C@@H](C)C(=O)[C@H](C)[C@@H](O)[C@]1(C)O [ERYTHROMYCIN] | Not Active |  | Not Active | Not Active | Not Active |  | Not Active |  | Not Active |  | Not Active |  | Not Active |  |  | 
NS(=O)(=O)c1cc(C(=O)O)c(NCc2ccco2)cc1Cl [FUROSEMIDE] | Not Active |  | Not Active | Not Active | Not Active |  | Not Active |  | Not Active |  | Not Active |  | Not Active |  |  | 
COc1cc([C@@H]2c3cc4c(cc3[C@H](O)[C@H]3COC(=O)[C@H]23)OCO4)cc(OC)c1OC [PODOFILOX] | Not Active |  | Not Active | Not Active | Not Active |  | Not Active |  | Not Active |  | Not Active |  | Not Active |  |  | 
CC(N)Cc1c[nH]c2ccc(OCc3cccs3)cc12 (stereo not drawn) [BW-723C86] | Not Active |  | Not Active | Not Active | Not Active |  | Not Active |  | Not Active |  | Not Active |  | Not Active |  |  | 
O=C(O)COC(=O)Cc1ccccc1Nc1c(Cl)cccc1Cl [ACECLOFENAC] | Not Active |  | Not Active | Not Active | Not Active |  | Not Active |  | Not Active |  | Not Active |  | Not Active |  |  | 
COC(=O)Nc1nc2ccc(Sc3ccccc3)cc2[nH]1 [FENBENDAZOLE] | Not Active |  | Not Active | Not Active | Not Active |  | Not Active |  | Not Active |  | Not Active |  | Not Active |  |  | 
